Results as given in US12590063B2, “Phenol derivative” (Sumitomo Pharma Co., Ltd., priority 2020, dated 2026).
Read-outs that look alike come from different tables or passages of the source.

Target: T1, Human TRPV1 (Homo sapiens, UniProt Q8NER1)
T1 construct: the TRPV1 gene (GenBank NP_542435.2) had been inserted; expressed in transfected cells; host or cells: HEK293 cells (cat #CCL-82.2, ATCC), transient transfection with pcDNA3.1
Experiment: Evaluation of agonistic properties using human TRPV1 transiently expressing cells
Format: cell-based
Description: Test Example 1: Evaluation of Agonistic Properties Using Human TRPV1 Transiently Expressing Cells
(1) Generation of Human TRPV1 Transiently Expressing Cells
Human TRPV1 transiently expressing cells were generated and subjected to culture. Specifically, HEK293 cells (cat #CCL-82.2, ATCC) were used as host cells. Human TRPV1 and apoaequorin were transiently expressed by introducing the mammalian cell expression pcDNA3.1 vector (cat #v790-20, Invitrogen) into which the TRPV1 gene (GenBank NP_542435.2) had been inserted.
The Dulbecco's Modified Eagle's Medium (DMEM) medium (cat #11550-043, Thermo Fisher Scientific) containing 10% inactivated fetal bovine serum (cat #10270-106, Thermo Fisher Scientific) was used as the medium, and the culture was carried out in tissue culture dishes (cat #3020-100, Iwaki). During the culture, cells were collected every 2 to 3 days by treating with PBS containing 10% 2.5 g/1-trypsin/[…] solution, phenol red (cat #32777-44, Nacalai Tesque), and passage culture was carried out.
Three days after the passage, cells were collected with 10% trypsin-PBS treatment at a state of about 80% confluency, suspended in a DMEM medium containing 10% fetal bovine serum to 4000 cells/35 μl/well, and seeded into 384-well plates (cat #353962, FALCON).
The day after seeding, Viviren (cat #E6492, Promega) was added (15 μl/well) to a final concentration of 4.5 μM/HBSS (cat #14065-056, Thermo Fisher Scientific)/90 mM HEPES (cat #17514-15, Nacalai Tesque)/0.1% BSA (cat #01281-84, Nacalai Tesque), and after centrifugation, the samples were allowed to stand at room temperature for 2 hours under light-shielded conditions.
(2) Preparation of Test Compounds
For the test compounds, dimethyl sulfoxide solutions were produced at a concentration 1000 times the final concentration, and from these solutions, solutions at concentration 10 times the final concentration were prepared with Hanks/20 mmol/L HEPES/0.10% BSA (cat #01281-84, Nacalai Tesque).
(3) Evaluation of TRPV1-Agonistic Properties
FDSS7000 (Hamamatsu Photonics K.K.) was used for detection of TRPV1 agonist-stimulated luminescence signals. The test compounds were added to plates to which the cells and luminescent substrates had been added. The luminescence signals (center wavelength: 465 nm) after addition of the test compounds were measured, and the Rlu (Max−Min) was calculated.

[1] = HEK293 cells transiently expressing human TRPV1 and apoaequorin, luminescence signal Rlu (Max-Min), read-out: TRPV1 EC50

T1 sequence (Q8NER1 whole entry): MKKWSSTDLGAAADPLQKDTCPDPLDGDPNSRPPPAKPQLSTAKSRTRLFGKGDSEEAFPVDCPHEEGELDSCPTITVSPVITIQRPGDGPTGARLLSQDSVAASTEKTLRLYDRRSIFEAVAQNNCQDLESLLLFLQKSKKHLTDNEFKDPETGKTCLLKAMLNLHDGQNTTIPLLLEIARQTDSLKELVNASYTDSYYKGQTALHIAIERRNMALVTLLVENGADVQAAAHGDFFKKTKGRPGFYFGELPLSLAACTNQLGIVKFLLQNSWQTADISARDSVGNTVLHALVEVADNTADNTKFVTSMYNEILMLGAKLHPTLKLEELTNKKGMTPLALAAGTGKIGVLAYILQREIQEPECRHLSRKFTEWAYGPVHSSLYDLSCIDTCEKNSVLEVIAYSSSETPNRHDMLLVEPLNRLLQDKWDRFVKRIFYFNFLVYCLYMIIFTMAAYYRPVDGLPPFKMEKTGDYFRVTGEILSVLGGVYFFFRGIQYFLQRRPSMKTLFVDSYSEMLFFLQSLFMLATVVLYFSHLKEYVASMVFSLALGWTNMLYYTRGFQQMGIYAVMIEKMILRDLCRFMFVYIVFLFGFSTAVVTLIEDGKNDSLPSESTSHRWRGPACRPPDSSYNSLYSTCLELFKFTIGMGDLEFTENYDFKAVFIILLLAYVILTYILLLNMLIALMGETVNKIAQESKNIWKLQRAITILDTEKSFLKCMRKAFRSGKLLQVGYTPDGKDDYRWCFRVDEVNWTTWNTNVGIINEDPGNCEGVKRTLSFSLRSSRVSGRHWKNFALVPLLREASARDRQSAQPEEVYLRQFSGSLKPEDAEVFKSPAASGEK

Row | SMILES | EC50 [1] [nM] | EC50 [nM]
1 | COc1cc(CC(=O)Nc2cccc([C@H]3CC[C@H](OC(=O)C(C)C)CC3)c2)ccc1O [Example 48, trans-4-{3-[2-(4-hydroxy-3-methoxyphenyl)acetamido]phenyl}cyclohexyl 2-methylpropanoate] | 32.1 | 
2 | COc1cc(CC(=O)Nc2cccc([C@H]3CC[C@H](OC(C)=O)CC3)c2)ccc1O [Example 38, trans-4-{3-[2-(4-hydroxy-3-methoxyphenyl)acetamido]phenyl}cyclohexyl acetate] | 18.9 | 
3 | COc1cc(CNC(=O)c2cccc(-c3cccc(O)c3)n2)ccc1O [compound 19] | 2720 | 
4 | COc1cc(CNC(=O)c2ccnc(-c3cccc(O)c3)c2)ccc1O [Reference Example 18] | 6110 | 
5 | COc1cc(CC(=O)Nc2cccc(-c3ccc(O)cc3)c2)ccc1O [compound 13] | 606 | 
6 | COc1cc(CNC(=O)c2cccc(-c3cccc(O)c3)c2)ccc1O [Reference Example 12, 3′-Hydroxy-N-[(4-hydroxy-3-methoxyphenyl)methyl][1,1′-biphenyl]-3-carboxamide] | 3290 | 
7 | COc1cc(CC(=O)Nc2cccc([C@H]3CC[C@@H](O)CC3)c2)ccc1O [Reference Example 9, N-{3-[(cis)-4-Hydroxycyclohexyl]phenyl}-2-(4-hydroxy-3-methoxyphenyl)acetamide] | 2690 | 
8 | COc1cc(CNC(=O)c2cccc([C@H]3CC[C@@H](OC(C)=O)CC3)c2)ccc1O [Example 42, cis-4-(3-{[(4-hydroxy-3-methoxyphenyl)methyl]carbamoyl}phenyl)cyclohexyl acetate] | 83.1 | 
9 | COc1cc(CC(=O)Nc2ccnc(-c3cccc(O)c3)c2)ccc1O [compound 15] | 4560 | 
10 | COc1cc(CC(=O)Nc2cccc([C@H]3CC[C@H](O)CC3)c2)ccc1O [Reference Example 10, N-{3-[(trans)-4-Hydroxycyclohexyl]phenyl}-2-(4-hydroxy-3-methoxyphenyl)acetamide] | 8060 | 
11 | COc1cc(CC(=O)Nc2ccc(F)c(-c3cccc(O)c3)c2)ccc1O [compound 17] | 7020 | 
12 | COc1cc(CC(=O)Nc2cccc(-c3cccc(O)c3)n2)ccc1O [compound 16] | 1010 | 
13 | COc1cc(CC(=O)Nc2cccc([C@H]3CC[C@H](OC(=O)Cc4ccccc4)CC3)c2)ccc1O [Example 36, trans-4-{3-[2-(4-hydroxy-3-methoxyphenyl)acetamido]phenyl}cyclohexyl phenylacetate] |  | 57.5
14 | COc1cc(CC(=O)Nc2ccnc([C@H]3CC[C@@H](OC(C)=O)CC3)c2)ccc1OC(C)=O [Example 43, 4-[2-({2-[(cis)-4-(acetyloxy)cyclohexyl]pyridin-4-yl}amino)-2-oxoethyl]-2-methoxyphenyl acetate] | 3080 | 
15 | COc1cc(CC(=O)Nc2cccc([C@H]3CC[C@@H](OC(C)=O)CC3)c2)ccc1OC(C)=O [Example 39, 4-(2-{3-[(cis)-4-(acetyloxy)cyclohexyl]anilino}-2-oxoethyl)-2-methoxyphenyl acetate] | 282 | 
16 | COc1cc(CC(=O)Nc2cccc([C@H]3CC[C@H](OC(C)=O)CC3)c2)ccc1OC(C)=O [Example 40, 4-(2-{3-[(trans)-4-(acetyloxy)cyclohexyl]anilino}-2-oxoethyl)-2-methoxyphenyl acetate] | 480 | 
17 | COc1cc(CC(=O)Nc2cccc([C@H]3CC[C@H](OC(=O)C4CCCCC4)CC3)c2)ccc1O [Example 37, trans-4-{3-[2-(4-hydroxy-3-methoxyphenyl)acetamido]phenyl}cyclohexyl cyclohexanecarboxylate] | 73.1 | 
18 | COc1cc(CC(=O)Nc2ccnc([C@H]3CC[C@@H](OC(C)=O)CC3)c2)ccc1O [Example 41, cis-4-{4-[2-(4-hydroxy-3-methoxyphenyl)acetamido]pyridin-2-yl}cyclohexyl acetate] | 95.1 | 
19 | COc1cc(CC(=O)Nc2cccc([C@H]3CC[C@@H](OC(=O)Cc4ccccc4)CC3)c2)ccc1O [Example 35, cis-4-{3-[2-(4-hydroxy-3-methoxyphenyl)acetamido]phenyl}cyclohexyl phenylacetate] |  | 8.2
